In patent US8956832B2, “Cells expressing anti-GD2 antibodies and methods related thereto” (Morphotek, Inc., priority 2008, dated 2015):

Test system: AB527-expressing cells
Assay: Effect of valeric acid on cell growth and antibody production
Format: cell-based, Chinese Hamster
Conditions: for Maximum Viable Cell Density: 14 days; for Doubling Time (DT): in h (unit assumed)
Description: To determine the effect of valeric acid on cell growth, AB527-expressing cells were cultured in GIBCO-CD-CHO complete medium supplemented with valeric acid to a concentration of 0 mM, 1 mM, 2 mM, 4 mM, or 8 mM. Cells were cultured for 14 days and viable cell density, percent viability, and integral viable cell density were determined using a CEDEX automated cell counter on days 0, 3, 5, 7, 10, 13, and 14. Antibody production was determined for each group of cultured cells on day 14 by protein A HPLC.

Which results are given for `CCCCC(=O)O` [Valeric Acid, valeric acid]?
Integral of Viable Cell Density (IVC) (1 mM valeric acid): 6.74E+7 cells · day/mL; Specific Antibody Production Rate (Qp) (1 mM valeric acid): 58.44 mg/10^9 cells/day; Maximum Viable Cell Density (1 mM valeric acid): 94.60 10^5/mL; Final Antibody Titer (1 mM valeric acid, day 14): 4137.1 mg/L; antibody titer higher than that of the control culture (1 mM valeric acid, day 14): 36%; Final Antibody Titer (1 mM valeric acid, day 14, listed as valeric acid): 4137 mg/L; Doubling Time (DT) (1 mM valeric acid): 24.17; Integral of Viable Cell Density (IVC) (2 mM valeric acid): 6.55E+7 cells · day/mL; Specific Antibody Production Rate (Qp) (2 mM valeric acid): 54.45 mg/10^9 cells/day; Maximum Viable Cell Density (2 mM valeric acid): 81.00 10^5/mL; Final Antibody Titer (2 mM valeric acid, day 14): 3706.7 mg/L; Doubling Time (DT) (2 mM valeric acid): 24.17; Integral of Viable Cell Density (IVC) (4 mM valeric acid): 6.72E+7 cells · day/mL; Specific Antibody Production Rate (Qp) (4 mM valeric acid): 52.24 mg/10^9 cells/day; Maximum Viable Cell Density (4 mM valeric acid): 77.40 10^5/mL; Final Antibody Titer (4 mM valeric acid, day 14): 3600.1 mg/L; Doubling Time (DT) (4 mM valeric acid): 24.17; Integral of Viable Cell Density (IVC) (8 mM valeric acid): 4.76E+7 cells · day/mL; Specific Antibody Production Rate (Qp) (8 mM valeric acid): 56.16 mg/10^9 cells/day; Maximum Viable Cell Density (8 mM valeric acid): 54.40 10^5/mL; maximum cell density (8 mM valeric acid, at day 7): 5.4×10^6 cells/mL; viability (8 mM valeric acid, at day 7): 67.4%; Final Antibody Titer (8 mM valeric acid, day 14): 2760.4 mg/L; Doubling Time (DT) (8 mM valeric acid): 24.17
